Data reported in the supplement of paper PMC11208160.

Assay: recombinant UMI read abundance after kanamycin selection (control-corrected) (log10(CPM+1)); higher = more efficient recombination; extreme values may be limits of the assay; sequences stand for … in AGTGCAGAGAAAATCGGCCAGTTTTCTCTGCCTGCAGTCCGCATGCCGTGGGACCCCTTGGGTTCTAACCTGTTGCCTAGATTTATGCAGCGGACTGCCTTTCTCCCAAAGTGATAAACCGG…AGGTTGGTTTCACT; site = the 11-nt donor
Procedure, shortened: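 Under IPTG (0.07 mM) plus kanamycin, or without selection, Escherichia coli carrying a UMI-tagged donor and donor-binding-loop pair library and a target plasmid for the IS621 bridge recombinase were plated in two replicates. Recombinant UMIs were PCR-amplified across the donor–target junction and sequenced. Counts were converted to CPM, averaged over replicates, scaled by control-derived factors and reported as log10(CPM+1).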
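Note: IS621 bridge recombinase in Escherichia coli cells against a fixed T5 target plasmid.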

Sequence | recombinant UMI read abundance (log10)
AATGTAACATGGACCGGTTTTCCCGGTAATCCGTATTTGCG (site AATGTAACTTG) | 0.00267
GCTTGCACATGGACCGGTTTTCCCGGTAATCCGTATTTGAT (site GCTTGCCCTAT) | 0.00585
ATTGAGGCATGGACCGGTTTTCCCGGTAATCCGTATTTGGT (site ATTGAGTCTAC) | 0.801
AGGGGTCCATGGACCGGTTTTCCCGGTAATCCGTATTTGCT (site AGGGGTCCTAG) | 0.704
CTTCTCTCATGGACCGGTTTTCCCGGTAATCCGTATTTGTA (site CTTCTCTCTTT) | 0.676
CAAGCGCCATGGACCGGTTTTCCCGGTAATCCGTATTTGTG (site CAAGCGCCTCT) | 0.218
CCTAAAGCATGGACCGGTTTTCCCGGTAATCCGTATTTGCT (site CCTAAAGCTAG) | 0
CGGAATCCATGGACCGGTTTTCCCGGTAATCCGTATTTGTT (site AGGAATCCTAA) | 0
TATTTGACATGGACCGGTTTTCCCGGTAATCCGTATTTGCT (site TAGTTGACTAG) | 0.852
CCTGATACATGGACCGGTTTTCCCGGTAATCCGTATTTGTA (site CCTGATACTTA) | 0.326
GACGACGCATGGACCGGTTTTCCCGGTAATCCGTATTTGGA (site GACGACGCTTC) | 2.48
CGATCATCATGGACCGGTTTTCCCGGTAATCCGTATTTGCT (site AGATCATCTAA) | 0.00548
GGTCCAACATGGACCGGTTTTCCCGGTAATCCGTATTTGTA (site AGTCCAACTTA) | 0.0127
GGCACGCCATGGACCGGTTTTCCCGGTAATCCGTATTTGTA (site GCCACGCCTTA) | 0.006
CGGAATCCATGGACCGGTTTTCCCGGTAATCCGTATTTGTT (site TGGAATCCTAC) | 0
CAACCGCCATGGACCGGTTTTCCCGGTAATCCGTATTTGTG (site CAACCGCCTCA) | 0.00924
GTTAGGACATGGACCGGTTTTCCCGGTAATCCGTATTTGGC (site GTTAGGACTGC) | 2.84
ACATCTACATGGACCGGTTTTCCCGGTAATCCGTATTTGTG (site ACATGTACTCA) | 0.023
CTCCTGTCATGGACCGGTTTTCCCGGTAATCCGTATTTGAC (site CTCCTGTCTGT) | 0
TGACCGGCATGGACCGGTTTTCCCGGTAATCCGTATTTGGC (site TGCCCGGCTGC) | 0
AAAGTAACATGGACCGGTTTTCCCGGTAATCCGTATTTGCT (site AAGGTAACTAG) | 1.66
CGGAATCCATGGACCGGTTTTCCCGGTAATCCGTATTTGTT (site CGGAATGCTAA) | 0.0054
GTCACGACATGGACCGGTTTTCCCGGTAATCCGTATTTGGC (site GTCACGACTGC) | 1.65
CGGCTGCCATGGACCGGTTTTCCCGGTAATCCGTATTTGTT (site CGGCTGCCTAA) | 0.0892
CGGAGATCATGGACCGGTTTTCCCGGTAATCCGTATTTGGT (site CGGAGATCTAC) | 2.19

Sequence | recombinant UMI read abundance (log10)
TGCTTGGCATGGACCGGTTTTCCCGGTAATCCGTATTTGAA (site TGCTTGGCTTT) | 0.485
CCAGTTGCATGGACCGGTTTTCCCGGTAATCCGTATTTGAT (site CCAGTTGCTAT) | 1.42
CCATAAACATGGACCGGTTTTCCCGGTAATCCGTATTTGCT (site CCATAAACTAG) | 1.06
CGTTAGACATGGACCGGTTTTCCCGGTAATCCGTATTTGAG (site CGTTAGACTCG) | 0
ATACGAACATGGACCGGTTTTCCCGGTAATCCGTATTTGTC (site ACACGAACTGA) | 0
TCATAATCATGGACCGGTTTTCCCGGTAATCCGTATTTGCA (site TCATATTCTTG) | 0.925
CTCCACACATGGACCGGTTTTCCCGGTAATCCGTATTTGCT (site CTCTACACTAG) | 1.54
AAGTCGACATGGACCGGTTTTCCCGGTAATCCGTATTTGGG (site GAGTCGACTCC) | 0.0282
TAAAGTCCATGGACCGGTTTTCCCGGTAATCCGTATTTGTA (site TAAATTCCTTA) | 0.812
GAGTAGCCATGGACCGGTTTTCCCGGTAATCCGTATTTGTC (site GAGTAGCCTGA) | 0
TAGAATACATGGACCGGTTTTCCCGGTAATCCGTATTTGCA (site TAAAATACTTG) | 0.792
CCGAAAGCATGGACCGGTTTTCCCGGTAATCCGTATTTGAT (site CCTAAAGCTAT) | 0.0026
AGGGAGTCATGGACCGGTTTTCCCGGTAATCCGTATTTGCA (site AGGGAGTCTTG) | 2.79
CTCTATACATGGACCGGTTTTCCCGGTAATCCGTATTTGCT (site CTCTACACTAG) | 0.592
CGTTAGACATGGACCGGTTTTCCCGGTAATCCGTATTTGAG (site CGTTAGACTTT) | 0.315
AACCGTCCATGGACCGGTTTTCCCGGTAATCCGTATTTGAT (site AACCGACCTAT) | 0
GTTAGAACATGGACCGGTTTTCCCGGTAATCCGTATTTGGC (site GTTAGAGCTGC) | 0.0184
GGGGAGGCATGGACCGGTTTTCCCGGTAATCCGTATTTGTG (site GAGGAGGCTCA) | 0
CGGGAATCATGGACCGGTTTTCCCGGTAATCCGTATTTGAT (site CGGGAACCTAT) | 0
GGGGCATCATGGACCGGTTTTCCCGGTAATCCGTATTTGCA (site GGGGCAACTTG) | 0
TAAAAGCCATGGACCGGTTTTCCCGGTAATCCGTATTTGAG (site TAAAAGCCTCT) | 0.525
GATTATCCATGGACCGGTTTTCCCGGTAATCCGTATTTGGT (site GATTATCCTAT) | 0
CGCTAGACATGGACCGGTTTTCCCGGTAATCCGTATTTGAG (site CGATAGACTCT) | 0.0154
ATAGTATCATGGACCGGTTTTCCCGGTAATCCGTATTTGCA (site AGAGTATCTTG) | 2.15
ACGGAACCATGGACCGGTTTTCCCGGTAATCCGTATTTGAG (site ACGGAACCTCT) | 0

Sequence | recombinant UMI read abundance (log10)
CTAGTGTCATGGACCGGTTTTCCCGGTAATCCGTATTTGGC (site CTAGTATCTGT) | 1.29
TCCACCGCATGGACCGGTTTTCCCGGTAATCCGTATTTGCG (site TCCACCGCTCC) | 0.0232
GATCATCCATGGACCGGTTTTCCCGGTAATCCGTATTTGCT (site GATCATCCTAG) | 0.452
ACAGTACCATGGACCGGTTTTCCCGGTAATCCGTATTTGCC (site ACAGTACCTGG) | 0
GATTTTCCATGGACCGGTTTTCCCGGTAATCCGTATTTGCT (site GATTCTCCTAG) | 0
AGTACAGCATGGACCGGTTTTCCCGGTAATCCGTATTTGCC (site AGTACAGCTGG) | 2.27
TAGAATACATGGACCGGTTTTCCCGGTAATCCGTATTTGCA (site AAGAATACTTG) | 0.559
AATTAGCCATGGACCGGTTTTCCCGGTAATCCGTATTTGAG (site AATTAGCCTCT) | 0.017
CGATCATCATGGACCGGTTTTCCCGGTAATCCGTATTTGCT (site CGATCTTCTTG) | 0
TACTCCGCATGGACCGGTTTTCCCGGTAATCCGTATTTGTC (site TACTCCGCTGA) | 2.18
GCTTGCACATGGACCGGTTTTCCCGGTAATCCGTATTTGAT (site GCTTGCACTAT) | 1.16
AGGTAGACATGGACCGGTTTTCCCGGTAATCCGTATTTGAA (site AGGTAGACTTT) | 1.89
TAGCTGGCATGGACCGGTTTTCCCGGTAATCCGTATTTGAA (site TAGCTGGCTTT) | 0.732
GTGAAGCCATGGACCGGTTTTCCCGGTAATCCGTATTTGGG (site GTGAAGCCTCC) | 0.00505
GTAGGTACATGGACCGGTTTTCCCGGTAATCCGTATTTGCC (site GTAGGTACTGG) | 0.956
GACAAACCATGGACCGGTTTTCCCGGTAATCCGTATTTGGT (site GACACACCTAC) | 0
GCCCTCCCATGGACCGGTTTTCCCGGTAATCCGTATTTGTG (site GCCCTCCCTCA) | 0.0428
AGCTGAGCATGGACCGGTTTTCCCGGTAATCCGTATTTGGG (site AGCTAAGCTCC) | 0.0048
CCCCAGACATGGACCGGTTTTCCCGGTAATCCGTATTTGTA (site CCCCATACTTA) | 0.00999
TTAGAACCATGGACCGGTTTTCCCGGTAATCCGTATTTGCC (site TTAGAACCTGG) | 0
CCGTTTGCATGGACCGGTTTTCCCGGTAATCCGTATTTGTG (site CCGTTTGCTCA) | 0
CCGGCAGCATGGACCGGTTTTCCCGGTAATCCGTATTTGCA (site CCGGCAGCTTG) | 0.255
TGTAAAGCATGGACCGGTTTTCCCGGTAATCCGTATTTGAC (site TGTAAAGCTGT) | 0.0139
ACTAGAACATGGACCGGTTTTCCCGGTAATCCGTATTTGAT (site ACTAGAACTTT) | 0.0117
ACACCTCCATGGACCGGTTTTCCCGGTAATCCGTATTTGAC (site ACACATCCTGT) | 0
